No end group written: not given here.
How the values were obtained:
[1] = tested on: A. baumannii laboratory strains (ATCC strains 17,978 and 19,606); assay type: cell-based, Acinetobacter baumannii; conditions: disc diffusion; activity = inhibition zone diameter ≥ 10 mm
Procedure: The antimicrobial activities of 58 AMPs were screened against A. baumannii laboratory strains (ATCC strains 17,978 and 19,606) in vitro using a disc diffusion assay (Supplementary Table 1).
The antimicrobial activity against Acinetobacter baumannii were determined by a inhibition zone
assay, performed as previous described1. The AMPs with an inhibition zone diameter ≥ 10 mm were
determined as the AMPs with antimicrobial activity.

[2] = tested on: MDRAB clinical strain U80; assay type: cell-based, Acinetobacter baumannii; conditions: 24 h
[3] = tested on: MDRAB clinical strain AO80; assay type: cell-based, Acinetobacter baumannii; conditions: 24 h
Procedure: (§1) MBC were determined by extending the MIC procedure in sterilized 96-well polypropylene microtiter plates according to the broth microdilution guidelines of the Clinical and Laboratory Standards Institute with some modification[47]. […] In addition, 10 µL was drawn from each well with no visible turbidity onto LB agar plates and incubated for 24 h at 37 °C. The lowest concentration showing no visible growth on agar subculture was used as the MBC value. All experiments were performed in triplicate.

[4] = tested on: MDRAB clinical strain O59; assay type: cell-based, Acinetobacter baumannii; conditions: 24 h
[5] = tested on: MDRAB clinical strain AF11; assay type: cell-based, Acinetobacter baumannii; conditions: 24 h
Procedure: as §1

[6] = tested on: MDRAB clinical strain AS40; assay type: cell-based, Acinetobacter baumannii; conditions: 24 h
Procedure: as §1

[7] = tested on: MDRAB clinical strain AE6; assay type: cell-based, Acinetobacter baumannii; conditions: 24 h
Procedure: as §1

[8] = tested on: MDRAB clinical strain D29; assay type: cell-based, Acinetobacter baumannii; conditions: 24 h
Procedure: as §1

[9] = tested on: MDRAB clinical strain AL87; assay type: cell-based, Acinetobacter baumannii; conditions: 24 h
[10] = tested on: MDRAB clinical strain J49; assay type: cell-based, Acinetobacter baumannii; conditions: 24 h
Procedure: as §1

MDRAB clinical strains = assay type: cell-based, Acinetobacter baumannii; conditions: 24 h
[11] = tested on: MDRAB clinical strain Y92; assay type: cell-based, Acinetobacter baumannii; conditions: 24 h
Procedure: as §1

[12] = tested on: MDRAB clinical strain L87; assay type: cell-based, Acinetobacter baumannii; conditions: 24 h
Procedure: as §1

[13] = tested on: MDRAB clinical strain AF93; assay type: cell-based, Acinetobacter baumannii; conditions: 24 h
Procedure: as §1

[14] = tested on: Acinetobacter baumannii 19,606; assay type: cell-based; conditions: 19,606, 24 h
Procedure: as §1

[15] = tested on: Acinetobacter baumannii 17,978; assay type: cell-based; conditions: 17,978, 24 h;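 also: CLSI broth microdilution in 96-well polypropylene plates, MBC taken as lowest concentration giving no growth when clear wells were subcultured on LB agar for 24 h at 37 °C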
Procedure: as §1

MDRAB clinical strain K2 = assay type: cell-based, Acinetobacter baumannii; conditions: 24 h
Procedure: as §1

[16] = tested on: MDRAB clinical strain AG51; assay type: cell-based, Acinetobacter baumannii; conditions: 24 h
Procedure: as §1

[17] = tested on: MDRAB clinical strain AN10; assay type: cell-based, Acinetobacter baumannii; conditions: 24 h
[18] = tested on: MDRAB clinical strain U95; assay type: cell-based, Acinetobacter baumannii; conditions: 24 h
[19] = tested on: MDRAB clinical strain AZ93; assay type: cell-based, Acinetobacter baumannii; conditions: 24 h
[20] = tested on: MDRAB clinical strain AF12; assay type: cell-based, Acinetobacter baumannii; conditions: 24 h
Procedure: as §1

[21] = tested on: MDRAB clinical strain W11; assay type: cell-based, Acinetobacter baumannii; conditions: 24 h
Procedure: as §1

[22] = tested on: MDRAB clinical strain AE5; assay type: cell-based, Acinetobacter baumannii; conditions: 24 h
[23] = tested on: MDRAB clinical strain AK61; assay type: cell-based, Acinetobacter baumannii; conditions: 24 h
Procedure: as §1

[24] = tested on: MDRAB clinical strain AK29; assay type: cell-based, Acinetobacter baumannii; conditions: 24 h

With “KQFRIRVRV [Peptide 1029, antimicrobial peptide]” the “antimicrobial activity against Acinetobacter baumannii (inhibition zone assay)” value [1] was “without antimicrobial activity (The antimicrobial peptides without antimicrobial activity)”.
With “KRFRIRVRV [Peptide 1037, antimicrobial peptide]” the “antimicrobial activity against Acinetobacter baumannii (inhibition zone assay)” value [1] was “without antimicrobial activity (The antimicrobial peptides without antimicrobial activity)”.
Sequence GIKIAKKAITIAKKIAKIYW [GW-Q6] has an MBC [2] of 16 µg/mL, an MIC [2] of 16 µg/mL and an MBC [3] of 16 µg/mL. The MIC [3] was 16 µg/mL, the MBC [4] was 32 µg/mL and the MIC [4] was 16 µg/mL. For the same sequence, the MBC [5] was 8 µg/mL, the MIC [5] was 8 µg/mL and the MBC [6] was 16 µg/mL. It also gave an MIC [6] of 16 µg/mL, an MBC [7] of 8 µg/mL and an MIC [7] of 8 µg/mL. For the same sequence, the MBC [8] was 32 µg/mL, the MIC [8] was 16 µg/mL and the MBC [9] was 8 µg/mL. For the same sequence, the MIC [9] was 8 µg/mL, the MBC [10] was 16 µg/mL and the MIC [10] was 16 µg/mL. It also gave an MBC (MDRAB clinical strains) of 8 to 32 µg/mL, an MIC (MDRAB clinical strains) of 8 to 16 µg/mL and an MBC [11] of 8 µg/mL. It also gave an MIC [11] of 8 µg/mL, an MBC [12] of 16 µg/mL and an MIC [12] of 16 µg/mL. For the same sequence, the MBC [13] was 16 µg/mL, the MIC [13] was 8 µg/mL and the MBC [14] was 16 µg/mL. It also gave an MIC [14] of 16 µg/mL, an MBC [15] of 16 µg/mL and an MIC [15] of 16 µg/mL. The MBC (MDRAB clinical strain K2) was 8 µg/mL, the MIC (MDRAB clinical strain K2) was 8 µg/mL and the MBC [16] was 8 µg/mL. The MIC [16] was 8 µg/mL, the MBC [17] was 8 µg/mL and the MIC [17] was 8 µg/mL. The MBC [18] was 32 µg/mL, the MIC [18] was 16 µg/mL and the MBC [19] was 8 µg/mL. It also gave an MIC [19] of 8 µg/mL, an MBC [20] of 8 µg/mL and an MIC [20] of 8 µg/mL. The MBC [21] was 16 µg/mL, the MIC [21] was 16 µg/mL and the MBC [22] was 8 µg/mL. The MIC [22] was 8 µg/mL, the MBC [23] was 16 µg/mL and the MIC [23] was 16 µg/mL. For the same sequence, the MBC [24] was 8 µg/mL and the MIC [24] was 8 µg/mL.

Source: publication PMC8016998, “Identification of potential therapeutic antimicrobial peptides against Acinetobacter baumannii in a mouse model of pneumonia” (Scientific Reports, 2021)
